According to PubChem BioAssay (NCI):
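Abbreviation: GI50, concentration required for 50% inhibition of growth. TGI is the concentration that stops growth completely.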

Legend:
Test in all cases: NCI anticancer screen, dose series, 384-well format
[1] = system: NCI-H460 NSCLC
[2] = system: NCI/ADR-RES ovarian
[3] = system: HS 578T breast
[4] = system: 786-0 renal
[5] = system: UACC-257 melanoma
[6] = system: KM12 colon
[7] = system: T-47D breast
[8] = system: HOP-62 NSCLC
[9] = system: LOX IMVI melanoma
[10] = system: HL-60(TB) leukemia
[11] = system: BT-549 breast
[12] = system: MCF7 breast
[13] = system: SF-539 CNS
[14] = system: SK-MEL-2 melanoma
[15] = system: NCI-H226 lung
[16] = system: HCT-15 colon
[17] = system: CAKI-1 renal
[18] = system: OVCAR-5 ovarian
[19] = system: PC-3 prostate
[20] = system: SF-268 CNS
[21] = system: ACHN renal
[22] = system: DU-145 prostate
[23] = system: CCRF-CEM leukemia
[24] = system: M14 melanoma
[25] = system: SR leukemia
[26] = system: SN12C renal
[27] = system: IGROV1 ovarian
[28] = system: SW-620 colon
[29] = system: A549 NSCLC
[30] = system: SNB-19 CNS
[31] = system: COLO 205 colon
[32] = system: U251 glioblastoma
[33] = system: MOLT-4 leukemia
[34] = system: UO-31 renal
[35] = system: RXF 393 renal
[36] = system: HT29 colon
[37] = system: RPMI-8226 leukemia
[38] = system: OVCAR-4 ovarian
[39] = system: MDA-MB-468 breast
[40] = system: SK-MEL-5 melanoma
[41] = system: NCI-H522 lung
[42] = system: SF-295 CNS
[43] = system: UACC-62 melanoma
[44] = system: HCC-2998 colon
[45] = system: A498 renal
[46] = system: MDA-MB-231 breast
[47] = system: NCI-H23 lung
[48] = system: K-562 leukemia
[49] = system: OVCAR-3 ovarian
[50] = system: MALME-3M melanoma
[51] = system: NCI-H322M lung
[52] = system: SNB-75 CNS
[53] = system: HCT-116 colon
[54] = system: SK-MEL-28 melanoma
[55] = system: TK-10 renal
[56] = system: SK-OV-3 ovarian
[57] = system: EKVX NSCLC
[58] = system: HOP-92 NSCLC
[59] = system: MDA-MB-435 melanoma

Q: Which GI50 [1] does the source give for `Cc1cc(Nc2cc(N3CCN(C)CC3)nc(C#Cc3ccccc3)n2)n[nH]1` here?
A: The GI50 was 2.42 µM.

Q: And the TGI [1]?
A: Its TGI is 12.1 µM.

Q: And the GI50 [2]?
A: The GI50 was 9.92 µM.

Q: What about the TGI [2] of the same molecule?
A: The TGI was 22 µM.

Q: And the GI50 [3]?
A: The GI50 was 2.24 µM.

Q: And the TGI [3]?
A: Its TGI is 9.92 µM.

Q: What about the GI50 [4] of the same molecule?
A: The GI50 was 3.75 µM.

Q: What about the TGI [4] of the same molecule?
A: The TGI was 15 µM.

Q: What about the GI50 [5] of the same molecule?
A: Its GI50 is 3.77 µM.

Q: And the TGI [5]?
A: Its TGI is 14.3 µM.

Q: What about the GI50 [6] of the same molecule?
A: The GI50 was 0.334 µM.

Q: And the TGI [6]?
A: The TGI was 10.4 µM.

Q: What about the GI50 [7] of the same molecule?
A: The GI50 was 9.61 µM.

Q: What about the TGI [7] of the same molecule?
A: The TGI was 21.4 µM.

Q: What about the GI50 [8] of the same molecule?
A: Its GI50 is 3.28 µM.

Q: And the TGI [8]?
A: Its TGI is 13.5 µM.

Q: What about the GI50 [9] of the same molecule?
A: The GI50 was 4.02 µM.

Q: What about the TGI [9] of the same molecule?
A: The TGI was 13 µM.

Q: And the GI50 [10]?
A: The GI50 was 2.12 µM.

Q: And the TGI [10]?
A: The TGI was 5.14 µM.

Q: And the GI50 [11]?
A: Its GI50 is 2.58 µM.

Q: What about the TGI [11] of the same molecule?
A: The TGI was 7.09 µM.

Q: What about the GI50 [12] of the same molecule?
A: The GI50 was 3.07 µM.

Q: And the TGI [12]?
A: The TGI was 15.1 µM.

Q: And the GI50 [13]?
A: The GI50 was 3.62 µM.

Q: What about the TGI [13] of the same molecule?
A: Its TGI is 15.9 µM.

Q: What about the GI50 [14] of the same molecule?
A: The GI50 was 4.14 µM.

Q: And the TGI [14]?
A: Its TGI is 6.87 µM.

Q: And the GI50 [15]?
A: The GI50 was 4.3 µM.

Q: What about the TGI [15] of the same molecule?
A: Its TGI is 16.9 µM.

Q: And the GI50 [16]?
A: The GI50 was 2.22 µM.

Q: And the TGI [16]?
A: The TGI was 11.4 µM.

Q: What about the GI50 [17] of the same molecule?
A: The GI50 was 1.6 µM.

Q: And the TGI [17]?
A: The TGI was 7.03 µM.

Q: What about the GI50 [18] of the same molecule?
A: Its GI50 is 3.53 µM.

Q: What about the TGI [18] of the same molecule?
A: Its TGI is 15.2 µM.

Q: What about the GI50 [19] of the same molecule?
A: Its GI50 is 3.09 µM.

Q: What about the TGI [19] of the same molecule?
A: The TGI was 13.9 µM.

Q: What about the GI50 [20] of the same molecule?
A: Its GI50 is 4.58 µM.

Q: And the TGI [20]?
A: Its TGI is 16.9 µM.

Q: And the GI50 [21]?
A: Its GI50 is 1.23 µM.

Q: And the TGI [21]?
A: The TGI was 7.68 µM.

Q: What about the GI50 [22] of the same molecule?
A: The GI50 was 4.04 µM.

Q: What about the TGI [22] of the same molecule?
A: Its TGI is 17.4 µM.

Q: What about the GI50 [23] of the same molecule?
A: Its GI50 is 2.19 µM.

Q: And the TGI [23]?
A: Its TGI is 7.01 µM.

Q: And the GI50 [24]?
A: Its GI50 is 3.13 µM.

Q: What about the TGI [24] of the same molecule?
A: Its TGI is 16.5 µM.

Q: And the GI50 [25]?
A: Its GI50 is 1.36 µM.

Q: And the TGI [25]?
A: Its TGI is 2.75 µM.

Q: What about the GI50 [26] of the same molecule?
A: Its GI50 is 2.73 µM.

Q: And the TGI [26]?
A: The TGI was 12.7 µM.

Q: What about the GI50 [27] of the same molecule?
A: Its GI50 is 0.607 µM.

Q: And the TGI [27]?
A: The TGI was 3.28 µM.

Q: And the GI50 [28]?
A: Its GI50 is 3.42 µM.

Q: What about the TGI [28] of the same molecule?
A: Its TGI is 12.5 µM.

Q: And the GI50 [29]?
A: The GI50 was 3.44 µM.

Q: And the TGI [29]?
A: The TGI was 12.2 µM.

Q: What about the GI50 [30] of the same molecule?
A: Its GI50 is 6.17 µM.

Q: What about the TGI [30] of the same molecule?
A: The TGI was 19.3 µM.

Q: And the GI50 [31]?
A: The GI50 was 3.73 µM.

Q: What about the TGI [31] of the same molecule?
A: The TGI was 14.5 µM.

Q: What about the GI50 [32] of the same molecule?
A: The GI50 was 5.41 µM.

Q: And the TGI [32]?
A: The TGI was 18.6 µM.

Q: And the GI50 [33]?
A: Its GI50 is 1.26 µM.

Q: What about the TGI [33] of the same molecule?
A: Its TGI is 2.58 µM.

Q: And the GI50 [34]?
A: The GI50 was 2.2 µM.

Q: And the TGI [34]?
A: The TGI was 8.13 µM.

Q: And the GI50 [35]?
A: The GI50 was 1.07 µM.

Q: What about the TGI [35] of the same molecule?
A: The TGI was 4.32 µM.

Q: What about the GI50 [36] of the same molecule?
A: Its GI50 is 3.95 µM.

Q: What about the TGI [36] of the same molecule?
A: Its TGI is 14.8 µM.

Q: What about the GI50 [37] of the same molecule?
A: The GI50 was 3.24 µM.

Q: And the TGI [37]?
A: The TGI was 13.4 µM.

Q: And the GI50 [38]?
A: The GI50 was 5.97 µM.

Q: What about the TGI [38] of the same molecule?
A: Its TGI is 20 µM.

Q: What about the GI50 [39] of the same molecule?
A: The GI50 was 1.51 µM.

Q: And the TGI [39]?
A: Its TGI is 3.55 µM.

Q: What about the GI50 [40] of the same molecule?
A: The GI50 was 2.49 µM.

Q: What about the TGI [40] of the same molecule?
A: Its TGI is 12.9 µM.

Q: And the GI50 [41]?
A: The GI50 was 1.71 µM.

Q: What about the TGI [41] of the same molecule?
A: The TGI was 8.3 µM.

Q: And the GI50 [42]?
A: Its GI50 is 2.95 µM.

Q: And the TGI [42]?
A: Its TGI is 13 µM.

Q: What about the GI50 [43] of the same molecule?
A: The GI50 was 3.1 µM.

Q: What about the TGI [43] of the same molecule?
A: Its TGI is 14.8 µM.

Q: And the GI50 [44]?
A: Its GI50 is 0.348 µM.

Q: What about the TGI [44] of the same molecule?
A: The TGI was 6.72 µM.

Q: And the GI50 [45]?
A: Its GI50 is 1.66 µM.

Q: And the TGI [45]?
A: Its TGI is 11 µM.

Q: And the GI50 [46]?
A: Its GI50 is 3.54 µM.

Q: And the TGI [46]?
A: Its TGI is 15.9 µM.

Q: What about the GI50 [47] of the same molecule?
A: Its GI50 is 2.3 µM.

Q: What about the TGI [47] of the same molecule?
A: The TGI was 10.9 µM.

Q: And the GI50 [48]?
A: The GI50 was 2.63 µM.

Q: What about the TGI [48] of the same molecule?
A: Its TGI is 12.3 µM.

Q: And the GI50 [49]?
A: The GI50 was 2.12 µM.

Q: And the TGI [49]?
A: The TGI was 13.4 µM.

Q: And the GI50 [50]?
A: Its GI50 is 2.57 µM.

Q: What about the TGI [50] of the same molecule?
A: Its TGI is 11.8 µM.

Q: And the GI50 [51]?
A: Its GI50 is 5.44 µM.

Q: What about the TGI [51] of the same molecule?
A: Its TGI is 19.6 µM.

Q: And the GI50 [52]?
A: Its GI50 is 1.73 µM.

Q: What about the TGI [52] of the same molecule?
A: The TGI was 4.35 µM.

Q: What about the GI50 [53] of the same molecule?
A: The GI50 was 2.94 µM.

Q: What about the TGI [53] of the same molecule?
A: The TGI was 11.9 µM.

Q: And the GI50 [54]?
A: Its GI50 is 5.59 µM.

Q: What about the TGI [54] of the same molecule?
A: Its TGI is 18.8 µM.

Q: What about the GI50 [55] of the same molecule?
A: The GI50 was 2.48 µM.

Q: What about the TGI [55] of the same molecule?
A: Its TGI is 15.2 µM.

Q: What about the GI50 [56] of the same molecule?
A: The GI50 was 1.04 µM.

Q: And the TGI [56]?
A: Its TGI is 4.36 µM.

Q: What about the GI50 [57] of the same molecule?
A: The GI50 was 2.79 µM.

Q: And the TGI [57]?
A: Its TGI is 12.7 µM.

Q: What about the GI50 [58] of the same molecule?
A: The GI50 was 2.23 µM.

Q: And the TGI [58]?
A: Its TGI is 8.85 µM.

Q: What about the GI50 [59] of the same molecule?
A: The GI50 was 3.18 µM.

Q: What about the TGI [59] of the same molecule?
A: The TGI was 12.6 µM.
